Assay results reported in paper PMC4350406, “Mechanism of Action of 2-Aminobenzamide HDAC Inhibitors in Reversing Gene Silencing in Friedreich’s Ataxia” (Frontiers in Neurology, 2015).
“Also recorded” adds a separate entry of the source. Like-named read-outs stand apart in the source and are kept apart here.

What was measured:
[1] = system: FXN mRNA; settings: cited from earlier work; for effect on FXN gene expression: lymphoid cells
[2] = system: FXN mRNA; design: method as in PMID 12516053; settings: cited from earlier work
[3] = system: FXN mRNA; design: method as in PMID 16921367; settings: FRDA primary lymphocytes; cited from earlier work
[4] = system: FXN mRNA; experiment: qRT-PCR of FXN mRNA in FRDA iPSC-derived neurons treated with HDAC inhibitors; assay type: cell-based, human; settings: for up-regulation of FXN mRNA: 10 μM for 24 h, data not shown; for effect on FXN mRNA levels: 16-day-old FRDA neurons, 24 h, varying concentrations (Figure 2)
Method: (§1) All methods for iPSC derivation ([32]) and neuronal differentiation ([28], [33]) have been presented. […] Quantitative RT-PCR was performed as described ([28]), with the following primer pairs: • FXN: 5′-[…]-3′ and 5′-[…]-3′ • HDAC1: 5′-[…]-3′ and 5′-[…]-3′ • HDAC2: 5′-[…]-3′ and 5′-[…]-3′ • HDAC3: 5′-[…]-3′ and 5′-[…]-3′ • PCGF2: 5′-[…]-3′ and 5′-[…]-3′ • H2AFY2: 5′-[…]-3′ and 5′-[…]-3′
(§2) Data were normalized to RNA concentration and p values calculated using the t-test. Western blotting was performed as described ([28]), with antibodies to HDACs 1, 2, and 3 from Abcam (ab7028, ab7029, ab7030, respectively), used at a dilution of 1:5000. […] Protein concentrations were determined with the BCA assay (Thermo Scientific).

[5] = molecular target: T1, Recombinant human HDAC3/NCoR2 (Homo sapiens, UniProt O15379); settings: cited from earlier work
[6] = system: FXN mRNA; design: method as in PMID 25159818; settings: cited from earlier work
[7] = molecular target: T2, Recombinant human HDAC1 (Homo sapiens, UniProt Q13547); settings: cited from earlier work
[8] = system: H2AFY2 mRNA; experiment: qRT-PCR of H2AFY2 mRNA in FRDA neuronal cells; assay type: cell-based, human; settings: 24 h
Method: as §1, §2

[9] = system: PCGF2 mRNA; experiment: qRT-PCR of PCGF2 mRNA in FRDA neuronal cells; assay type: cell-based, human; settings: 24 h
Method: as §1, §2

[10] = molecular target: T2, Recombinant human HDAC1; experiment: HDAC1 deacetylase activity assay (acetyl-Lys(Ac)-AMC / Lys-C peptidase, progression curves)
[11] = molecular target: T1, Recombinant human HDAC3/NCoR2; experiment: HDAC3/NCoR2 deacetylase activity assay (acetyl-Lys(Ac)-AMC / Lys-C peptidase, progression curves)
[12] = design: method as in PMID 25159818; settings: preclinical studies; cited from earlier work
[13] = system: HDAC; design: method as in PMID 16921367, PMID 18953021; settings: cited from earlier work
[14] = design: method as in PMID 27721337, PMID 22973455; settings: in vivo, cited from earlier work
[15] = cited from earlier work
[16] = fit of kobs versus inhibitor concentration
[17] = progression curves, mechanism 2
[18] = progression curves, mechanism 1

T1 sequence (O15379 whole entry): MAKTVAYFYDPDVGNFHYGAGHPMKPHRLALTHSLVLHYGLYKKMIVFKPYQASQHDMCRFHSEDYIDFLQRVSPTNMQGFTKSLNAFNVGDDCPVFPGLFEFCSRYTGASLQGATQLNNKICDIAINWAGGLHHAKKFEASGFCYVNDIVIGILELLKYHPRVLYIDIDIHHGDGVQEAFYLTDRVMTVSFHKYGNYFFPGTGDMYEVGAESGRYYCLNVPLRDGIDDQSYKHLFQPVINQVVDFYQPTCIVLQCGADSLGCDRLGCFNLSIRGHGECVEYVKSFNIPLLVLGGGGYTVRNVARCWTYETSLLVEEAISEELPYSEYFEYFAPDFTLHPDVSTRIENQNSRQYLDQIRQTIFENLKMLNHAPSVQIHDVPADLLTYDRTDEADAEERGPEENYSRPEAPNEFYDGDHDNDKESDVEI
T1 sequence (Q9Y618 395-489 partner limits assumed): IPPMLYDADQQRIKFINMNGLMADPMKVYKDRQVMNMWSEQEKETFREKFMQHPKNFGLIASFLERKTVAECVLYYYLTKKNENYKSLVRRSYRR
T2 sequence (Q13547 whole entry): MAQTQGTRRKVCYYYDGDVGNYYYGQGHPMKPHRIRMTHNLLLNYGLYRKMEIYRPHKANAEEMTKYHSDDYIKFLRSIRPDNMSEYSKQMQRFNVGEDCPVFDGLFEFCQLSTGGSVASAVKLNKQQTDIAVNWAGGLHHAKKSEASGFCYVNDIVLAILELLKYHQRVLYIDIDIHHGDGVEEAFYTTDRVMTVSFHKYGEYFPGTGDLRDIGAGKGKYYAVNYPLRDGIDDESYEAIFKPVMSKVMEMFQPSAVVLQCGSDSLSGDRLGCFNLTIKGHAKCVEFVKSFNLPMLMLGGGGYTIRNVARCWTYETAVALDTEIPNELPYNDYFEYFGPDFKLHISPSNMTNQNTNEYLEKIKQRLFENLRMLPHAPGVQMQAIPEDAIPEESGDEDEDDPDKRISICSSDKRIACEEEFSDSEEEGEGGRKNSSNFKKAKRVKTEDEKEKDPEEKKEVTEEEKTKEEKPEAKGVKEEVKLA

## NC(=O)c1cccnc1 [nicotinamide]
[1]; FRDA lymphoblasts
  FXN mRNA levels: increases FXN mRNA levels

## CCCC(=O)[O-].[Na+] [sodium butyrate]
[2]
  ability to increase FXN mRNA expression: only a modest effect

## Nc1ccccc1NC(=O)CCCCCC(=O)Nc1ccccc1 [4b, N^1-(2-aminophenyl)-N^7-phenylheptanediamide]
[3]
  FXN mRNA levels: significantly increase FXN mRNA levels

## Nc1cc(F)ccc1NC(=O)/C=C/c1cnn(CC=Cc2ccccc2)c1 [HDACi 966, (E)-N-(2-amino-4-fluorophenyl)-3-(1-cinnamyl-1H-pyrazol-4-yl)acrylamide]
[4]; FRDA neuronal cells
  up-regulation of FXN mRNA: did not
[5]
  selectivity for HDAC3 over HDAC1/2: ~ 30 fold
[6]
  induction of FXN gene expression in FRDA neuronal cells: inactive

## Nc1ccc(-c2cccs2)cc1NC(=O)CCCCCCNC(=O)c1cccnc1 [HDACi 233, N-(2-amino-5-(2-thienyl)phenyl)-7-nicotinoylamino-heptanamide]
[4]; FRDA neuronal cells
  up-regulation of FXN mRNA: did not
[7]
  selectivity for HDAC1 over HDAC3: > 200 fold
[6]
  induction of FXN gene expression in FRDA neuronal cells: weakly active

## Cc1ccc(C(=O)NCCCCCC(=O)Nc2ccc(F)cc2N)cc1 [HDACi 136, N-(6-(2-amino-4-fluorophenylamino)-6-oxohexyl)-4-methylbenzamide]
[4]
  effect on FXN mRNA levels: only a modest effect; also recorded: inactive
[8]; 5 μM (lower concentrations)
  H2AFY2 mRNA level: inactive at lower concentrations
[8]; 10 μM
  H2AFY2 mRNA level: moderately active
[9]; 5 μM (lower concentrations)
  PCGF2 mRNA level: inactive at lower concentrations
[9]; 10 μM
  PCGF2 mRNA level: moderately active

## Nc1ccc(-c2ccccc2)cc1NC(=O)CCCCCC(=O)Nc1ccccc1 [HDACi 3, N^1-(4-aminobiphenyl-3-yl)-N^7-phenylheptanediamide]
[4]
  effect on FXN mRNA levels: no effect; also recorded: weakly active
[7]
  IC50: 0.127 µM
[5]
  IC50: 9.6 µM
[10]; [16]
  inhibition mechanism HDAC1: slow-on/slow-off inhibition mechanism 2
[10]; from Table 1 values
  preference for HDAC1 over HDAC3 comparing IC50 values: ~ 75 fold
  preference for HDAC1 over HDAC3 from Ki measurements: ~ 350 fold
[10]; [17]
  k2 HDAC1: k2 = 0.1675 min^−1
  k−2 HDAC1: k−2 = 0.0017 min^−1
[11]; [16]
  inhibition mechanism HDAC3: mechanism 1
[11]; [18]
  k1 HDAC3: k1 = 600 min^-1 M^−1
  k−1 HDAC3: k−1 = 0.0015 min^−1
[11]; ratio of IC50 HDAC1 to IC50 HDAC3, from data of refs 25, 26
  Selectivity HDAC3 (from IC50): 0.013

## O=C(CCCCCCC(=O)Nc1ccccc1)NO [SAHA]
[1]
  effect on FXN gene expression: without effect on FXN gene expression

## c1ccc2[nH]cnc2c1 [benzimidazole]
[12]
  risk category for inducing QTc prolongation: high-risk category

## Nc1ccccc1NC(=O)CCCCCCC(=O)Nc1ccccc1 [BML-210, N^1-(2-aminophenyl)-N^8-phenyloctanediamide]
[1]; FRDA lymphoblasts
  FXN mRNA expression: significant increase

## CC(/C=C/C(=O)NO)=C\[C@@H](C)C(=O)c1ccc(N(C)C)cc1 [TSA]
[1]
  effect on FXN gene expression: without effect on FXN gene expression
[13]
  inhibition mechanism: rapid-on/rapid-off inhibitors

## Cc1ccc(NC(=O)CCCCCC(=O)Nc2ccccc2N)cc1 [HDACi 106]
[7]
  inhibition mechanism HDAC1: slow-on/slow-off inhibitor
[14]
  metabolic conversion / benzimidazole formation: conversion of the active molecule into an inactive metabolic product

## Cc1ccc(C(=O)NCCCCCC(=O)Nc2ccccc2N)cc1 [HDACi 109, N-(6-(2-aminophenylamino)-6-oxohexyl)-4-methylbenzamide]
[14]
  metabolic conversion / benzimidazole formation: conversion of the active molecule into an inactive metabolic product
[14]; listed as 109/RG2833
  metabolic conversion / benzimidazole formation: conversion of the active molecule into inactive, potentially toxic metabolic products

## Nc1ccccc1NC(=O)/C=C/c1cn(C/C=C/c2ccccc2)nn1 [Click-1]
[4]; FRDA neuronal cells, varying concentrations (Figure 6B)
  FXN mRNA increase compared with HDACi 109: equivalent activities; also recorded: no loss of activity
[8]; 5 μM (lower concentrations)
  H2AFY2 mRNA level: significantly down-regulate
[9]; 5 μM (lower concentrations)
  PCGF2 mRNA level: significantly down-regulate
[15]
  brain/plasma ratio: > 0.7
[14]
  metabolic conversion / benzimidazole formation: stability to benzimidazole formation
